Values after ≈ are worked out from the molar mass of the structure shown.
Columns and labels:
[1] = Co-solvent and surfactant effects on pirfenidone saturation solubility; assay type: physicochemical; details: thermodynamic from solid;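 further: samples equilibrated by overnight agitation at ambient temperature, with solubility taken from the supernatant after undissolved solid was removed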
Experimental: Each sample was agitated at ambient temperature overnight. The samples were visually inspected and appearance recorded. Samples were centrifuged to sediment any un-dissolved material and the supernatant withdrawn via syringe through a 0.22 μm PVDF filter. […] The remaining filtered sample was split into three equal volumes in glass vials and placed at 25° C./60 RH, 40° C./75 RH and refrigeration. Samples are wrapped in aluminum foil to reduce light exposure. After the first night of incubation, samples are briefly visually inspected for any signs of discoloration or precipitate formation.

[2] = Buffer and pH effects study: pirfenidone saturation solubility; assay type: physicochemical; details: thermodynamic from solid
Experimental: The sample was agitated at ambient temperature overnight. The sample was visually inspected, appearance recorded, centrifuged to sediment any un-dissolved material, and the supernatant withdrawn via syringe through a 0.22 μm PVDF filter. […] The remaining filtered sample was split into three equal volumes in glass vials and placed at 25° C./60 RH, 40° C./75 RH and refrigeration. Samples were wrapped in aluminum foil to reduce light exposure. After the first night of incubation, samples were briefly visually inspected for any signs of discoloration or precipitate formation.

[3] = Intravenous push of pirfenidone, plasma and lung levels; assay type: in vivo; details: mouse

Cc1ccc(=O)n(-c2ccccc2)c1 [pirfenidone, 5-methyl-1-phenyl-2-(1H)-pyridone]
solubility ([1]; aqueous co-solvent/surfactant solvent system, pH 4.9, aqueous with cosolvent or surfactant or cyclodextrin, 4% Gly, 0.04% PS80, 96.0% water, pH 4.9): 20 mg/mL (≈ 108 mM)
solubility ([1]; aqueous co-solvent/surfactant solvent system, pH 5, aqueous with cosolvent or surfactant or cyclodextrin, 8% PG, 0.1% CPB, 91.9% water, pH 5.0): 22.3 mg/mL (≈ 120 mM)
solubility ([1]; aqueous co-solvent/surfactant solvent system, pH 5.8, aqueous with cosolvent or surfactant or cyclodextrin, 4% EtOH, 8% PG, 0.04% PS80, 88.0% water, pH 5.8): 28.9 mg/mL (≈ 156 mM)
solubility ([1]; aqueous co-solvent/surfactant solvent system, pH 6.1, aqueous with cosolvent or surfactant or cyclodextrin, 4% EtOH, 0.1% CPB, 95.9% water, pH 6.1): 23.9 mg/mL (≈ 129 mM)
solubility ([1]; aqueous co-solvent/surfactant solvent system, pH 6.2, aqueous with cosolvent or surfactant or cyclodextrin, 0.1% CPB, 99.9% water, pH 6.2): 20 mg/mL (≈ 108 mM)
solubility ([1]; aqueous co-solvent/surfactant solvent system, pH 6.2, aqueous with cosolvent or surfactant or cyclodextrin, 4% EtOH, 8% PG, 88.0% water, pH 6.2): 30 mg/mL (≈ 162 mM)
solubility ([1]; aqueous co-solvent/surfactant solvent system, pH 6.2, aqueous with cosolvent or surfactant or cyclodextrin, 8% PG, 0.1% CPB, 91.9% water, pH 6.2): 23.4 mg/mL (≈ 126 mM)
solubility ([1]; aqueous co-solvent/surfactant solvent system, pH 6.5, aqueous with cosolvent or surfactant or cyclodextrin, 0.04% PS80, 100.0% water, pH 6.5): 19.9 mg/mL (≈ 107 mM)
solubility ([1]; aqueous co-solvent/surfactant solvent system, pH 6.5, aqueous with cosolvent or surfactant or cyclodextrin, 4% Gly, 0.04% PS80, 96.0% water, pH 6.5): 20.2 mg/mL (≈ 109 mM)
solubility ([1]; aqueous co-solvent/surfactant solvent system, pH 6.6, aqueous with cosolvent or surfactant or cyclodextrin, 4% EtOH, 8% PG, 0.04% PS80, 88.0% phosphate buffer (5 mM), pH 6.6): 29.4 mg/mL (≈ 159 mM)
solubility ([1]; aqueous co-solvent/surfactant solvent system, pH 6.6, aqueous with cosolvent or surfactant or cyclodextrin, 4% EtOH, 8% PG, 88.0% phosphate buffer (5 mM), pH 6.6): 27.2 mg/mL (≈ 147 mM)
solubility ([1]; aqueous co-solvent/surfactant solvent system, pH 6.6, aqueous with cosolvent or surfactant or cyclodextrin, 8% EtOH, 0% PG, 92% phosphate buffer (5 mM), pH 6.6): 26.7 mg/mL (≈ 144 mM)
solubility ([1]; aqueous co-solvent/surfactant solvent system, pH 6.6, aqueous with cosolvent or surfactant or cyclodextrin, 8% PG, 0.04% PS80, 92.0% water, pH 6.6): 23.2 mg/mL (≈ 125 mM)
solubility ([1]; aqueous co-solvent/surfactant solvent system, pH 6.7, aqueous with cosolvent or surfactant or cyclodextrin, 4% EtOH, 0.04% PS80, 96.0% water, pH 6.7): 24.5 mg/mL (≈ 132 mM)
solubility ([1]; aqueous co-solvent/surfactant solvent system, pH 6.7, aqueous with cosolvent or surfactant or cyclodextrin, 8% EtOH, 12% PG, 80% phosphate buffer (5 mM), pH 6.7): 37.7 mg/mL (≈ 204 mM)
solubility ([1]; aqueous co-solvent/surfactant solvent system, pH 6.8, aqueous with cosolvent or surfactant or cyclodextrin, 0% EtOH, 16% PG, 84% phosphate buffer (5 mM), pH 6.8): 29.3 mg/mL (≈ 158 mM)
solubility ([1]; aqueous co-solvent/surfactant solvent system, pH 6.8, aqueous with cosolvent or surfactant or cyclodextrin, 2% EtOH, 16% PG, 82% phosphate buffer (5 mM), pH 6.8): 31 mg/mL (≈ 167 mM)
solubility ([1]; aqueous co-solvent/surfactant solvent system, pH 6.8, aqueous with cosolvent or surfactant or cyclodextrin, 8% EtOH, 4% PG, 88% phosphate buffer (5 mM), pH 6.8): 30.4 mg/mL (≈ 164 mM)
solubility ([1]; aqueous co-solvent/surfactant solvent system, pH 6.8, aqueous with cosolvent or surfactant or cyclodextrin, 8% EtOH, 8% PG, 84% phosphate buffer (5 mM), pH 6.8): 35 mg/mL (≈ 189 mM)
solubility ([1]; aqueous co-solvent/surfactant solvent system, pH 6.8, aqueous with cosolvent or surfactant or cyclodextrin, 8% EtOH, 16% PG, 76% phosphate buffer (5 mM), pH 6.8): 45.4 mg/mL (≈ 245 mM)
solubility ([1]; aqueous co-solvent/surfactant solvent system, pH 6.9, aqueous with cosolvent or surfactant or cyclodextrin, 4% EtOH, 16% PG, 80% phosphate buffer (5 mM), pH 6.9): 36.8 mg/mL (≈ 199 mM)
solubility ([1]; aqueous co-solvent/surfactant solvent system, pH 6.9, aqueous with cosolvent or surfactant or cyclodextrin, 6% EtOH, 16% PG, 78% phosphate buffer (5 mM), pH 6.9): 40.9 mg/mL (≈ 221 mM)
solubility ([1]; aqueous co-solvent/surfactant solvent system, pH 7, aqueous with cosolvent or surfactant or cyclodextrin, 6% EtOH, 12% PG, 82.0% phosphate buffer (5 mM), pH 7.0): 34.7 mg/mL (≈ 187 mM)
solubility ([1]; aqueous co-solvent/surfactant solvent system, pH 7, aqueous with cosolvent or surfactant or cyclodextrin, 8% EtOH, 16% PG, 76.0% phosphate buffer (5 mM), pH 7.0): 43.7 mg/mL (≈ 236 mM)
solubility ([1]; citrate buffer with co-solvent, pH 4.4, aqueous buffer, 4% Gly, 96.0% citrate buffer (10 mM), pH 4.4): 19.8 mg/mL (≈ 107 mM)
solubility ([1]; citrate buffer with co-solvent, pH 4.4, aqueous with cosolvent or surfactant or cyclodextrin, 8% PG, 92.0% citrate buffer (10 mM), pH 4.4): 23.2 mg/mL (≈ 125 mM)
solubility ([1]; citrate buffer with co-solvent, pH 4.5, aqueous buffer, 4% EtOH, 96.0% citrate buffer (10 mM), pH 4.5): 22.3 mg/mL (≈ 120 mM)
solubility ([1]; citrate buffer with surfactant, pH 4.5, aqueous with cosolvent or surfactant or cyclodextrin, 0.04% PS80, 100.0% citrate buffer (10 mM), pH 4.5): 19.1 mg/mL (≈ 103 mM)
solubility ([1]; water with co-solvent, pH 4.8, water, 4% Gly, 96.0% water, pH 4.8): 20.1 mg/mL (≈ 109 mM)
solubility ([1]; water with co-solvent, pH 5, aqueous with cosolvent or surfactant or cyclodextrin, 8% PG, 92.0% water, pH 5.0): 24.3 mg/mL (≈ 131 mM)
solubility ([1]; water with co-solvent, pH 5, water, 4% EtOH, 96.0% water, pH 5.0): 22.8 mg/mL (≈ 123 mM)
solubility ([1]; water with co-solvent, pH 6.7, water, 4% Gly, 96.0% water, pH 6.7): 20.1 mg/mL (≈ 109 mM)
solubility ([1]; water with co-solvent, pH 6.8, aqueous with cosolvent or surfactant or cyclodextrin, 8% PG, 92.0% water, pH 6.8): 24.6 mg/mL (≈ 133 mM)
solubility ([1]; water with co-solvent, pH 6.9, water, 4% EtOH, 96.0% water, pH 6.9): 24.3 mg/mL (≈ 131 mM)
solubility ([1]; water with surfactant, pH 4.8, aqueous with cosolvent or surfactant or cyclodextrin, 0.04% PS80, 100.0% water, pH 4.8): 8.3 mg/mL (≈ 44.8 mM)
solubility ([2]; citrate buffer, pH 4, aqueous buffer, Citrate buffer 5 mM, pH 4, ambient temperature overnight): 18.4 mg/mL (≈ 99.3 mM)
solubility ([2]; citrate buffer, pH 4, aqueous buffer, Citrate buffer 50 mM, pH 4, ambient temperature overnight): 18.1 mg/mL (≈ 97.7 mM)
solubility ([2]; citrate buffer, pH 6, aqueous buffer, Citrate buffer 5 mM, pH 6, ambient temperature overnight): 18.4 mg/mL (≈ 99.3 mM)
solubility ([2]; citrate buffer, pH 6, aqueous buffer, Citrate buffer 50 mM, pH 6, ambient temperature overnight): 16.4 mg/mL (≈ 88.5 mM)
solubility ([2]; phosphate buffer, pH 6, aqueous buffer, Phosphate buffer 5 mM, pH 6, ambient temperature overnight): 18.3 mg/mL (≈ 98.8 mM)
solubility ([2]; phosphate buffer, pH 6, aqueous buffer, Phosphate buffer 50 mM, pH 6, ambient temperature overnight): 17.2 mg/mL (≈ 92.9 mM)
solubility ([2]; phosphate buffer, pH 7.5, aqueous buffer, Phosphate buffer 5 mM, pH 7.5, ambient temperature overnight): 19 mg/mL (≈ 103 mM)
solubility ([2]; phosphate buffer, pH 7.5, aqueous buffer, Phosphate buffer 50 mM, pH 7.5, ambient temperature overnight): 16.3 mg/mL (≈ 88 mM)
solubility ([2]; water, pH 7.9, water, buffer 0 mM, pH 7.9, ambient temperature overnight): 18.4 mg/mL (≈ 99.3 mM)
Lung Cmax ([3]; 40 mg/kg intravenous dose): 30 mcg/gram wet tissue
pirfenidone in the lung tissue after subtracting blood content ([3]; 40 mg/kg intravenous dose, blood assumed 40% of wet lung weight): about 8 mcg/g
wet lung half-life, longer than the plasma half-life ([3]; intravenous push): about 45%
Cmax ([3]; plasma, 40 mg/kg intravenous dose): ~55 µg/mL
